Consider 13 compounds from BindingDB's records for doi:10.1016/j.bioorg.2015.10.007 (University of Thessaly, 2015).

The target in experiment [1] is T1, Non-secretory ribonuclease (Homo sapiens, UniProt P10153).
T1 sequence (P10153 whole entry): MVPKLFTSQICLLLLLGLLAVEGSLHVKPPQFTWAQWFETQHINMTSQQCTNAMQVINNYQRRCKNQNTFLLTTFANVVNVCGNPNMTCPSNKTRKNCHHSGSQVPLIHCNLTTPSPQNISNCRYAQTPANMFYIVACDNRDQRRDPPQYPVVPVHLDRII
The experiment is described as follows: Ribonuclease Activity Assay. Particulars: 30 °C. The method, then:
(§1) The Ribonuclease Activity assay used was adapted from the procedure described by Anfinsen et al. and Slifman et al. Determination of ribonuclease activity of RNase A and EDN proceeded as follows: yeast tRNA (Sigma-Aldrich) was solubilized in 50 mM sodium phosphate, pH = 7.4, at a concentration of 60 uM. Various tRNA concentrations were used: 2 uM, 3 uM, 4 uM, 5 uM and 6 uM. The final volume of the reaction was 300 ul. tRNA solutions were incubated at 30 C for 10 min. 10 nM of enzyme final concentration from a 0.6 uM stock solution added to the reactionmixture. The reaction was stopped one minute and five minutes later in the case of RNase A and EDN respectively, by the addition of 300 ul of fresh ice-cold solution of 40 mM lanthanum nitrate, 6% v/v perchloric acid. Stopped reactions were maintained on ice for 15 min, and insoluble tRNA was removed by centrifugation at 4 C for 15 min at 14.500 rpm on a bench centrifuge. The amountof cleaved tRNA was determined from the ultraviolet absorbance at 260 nm (A260) of the supernatant fraction.

Experiment [2] addresses Ribonuclease pancreatic (Bos taurus, UniProt P61823). The experiment is described as follows: Ribonuclease Activity Assay. Particulars: 30 °C. The method, then: as §1

Each structure is given as a SMILES string.

Sequence of Ribonuclease pancreatic (P61823 whole entry): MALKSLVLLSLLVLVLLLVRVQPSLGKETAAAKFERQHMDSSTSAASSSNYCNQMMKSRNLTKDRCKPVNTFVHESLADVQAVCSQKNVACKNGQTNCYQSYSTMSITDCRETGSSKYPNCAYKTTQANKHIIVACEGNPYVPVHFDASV

The term IC50 denotes the midpoint of a concentration-inhibition curve. Usually Ki stands for the dissociation constant of the complex between target and ligand, obtained from inhibition or displacement. On to `O=c1ccn(Cc2cn([C@@H]3O[C@H](CO)[C@H](O)C3O)nn2)c(=O)[nH]1` (stereo partly drawn) [1-({1-[(2R,5R)-3,4-dihydroxy-5-(hydroxymethyl)oxolan-2-yl]-1H-1,2,3-triazol-4-yl}methyl)-1,2,3,4-tetrahydropyrimidine-2,4-dione (I)], for which, in experiment [1], the IC50 worked out at 179 µM and the Ki came to 116 µM.

In experiment [1], `O=c1[nH]c(=O)n(Cc2cn([C@@H]3O[C@H](CO)[C@H](O)C3O)nn2)cc1F` (stereo partly drawn) [1-({1-[(2R,5R)-3,4-dihydroxy-5-(hydroxymethyl)oxolan-2-yl]-1H-1,2,3-triazol-4-yl}methyl)-5-fluoro-1,2,3,4-tetrahydropyrimidine-2,4-dione (III)] displayed an IC50 of 63.7 µM and an inhibition constant (Ki) of 44.2 µM.

Consider `Nc1ncnc2c1ncn2Cc1cn([C@@H]2C(O)[C@H](n3cc(F)c(=O)[nH]c3=O)O[C@@H]2CO)nn1` (stereo partly drawn) [1-[3'-[4-[(Adenine-9-yl)methyl]-1,2,3-triazol-1-yl]-b-D-ribofuranosyl]5-fluorouracil (5c)], for which the Ki in experiment [2] worked out at 265 µM.

In experiment [2], `Nc1ncnc2c1ncn2Cc1cn([C@@H]2C(O)[C@H](n3ccc(=O)[nH]c3=O)O[C@@H]2CO)nn1` (stereo partly drawn) [1-[3'-[4-[(Adenine-9-yl)methyl]-1,2,3-triazol-1-yl]-b-D-ribofuranosyl]uracil (5a)] returned an inhibition constant Ki of 159 µM.

Turning to `O=c1[nH]c(=O)n([C@@H]2O[C@H](CO)[C@H](O)C2O)cc1F` (stereo partly drawn) [1-[(2R,5R)-3,4-dihydroxy-5-(hydroxymethyl)oxolan-2-yl]-5-fluoro-1,2,3,4-tetrahydropyrimidine-2,4-dione (VI)], in experiment [1], inhibition was half-maximal at 282 µM (IC50) and the affinity corresponds to a Ki of 208 µM.

In experiment [1], `Cc1cn([C@@H]2O[C@H](CO)[C@H](O)C2O)c(=O)[nH]c1=O` (stereo partly drawn) [1-[(2R,5R)-3,4-dihydroxy-5-(hydroxymethyl)oxolan-2-yl]-5-methyl-1,2,3,4-tetrahydropyrimidine-2,4-dione (IV)] showed an IC50 of 33.1 µM and a Ki of 26.1 µM.

In the case of `O=c1[nH]c(=O)n(Cc2cn([C@@H]3O[C@H](CO)[C@H](O)C3O)nn2)cc1Cl` (stereo partly drawn) [5-chloro-1-({1-[(2R,5R)-3,4-dihydroxy-5-(hydroxymethyl)oxolan-2-yl]-1H-1,2,3-triazol-4-yl}methyl)-1,2,3,4-tetrahydropyrimidine-2,4-dione (II)], in experiment [1], half-maximal inhibition (IC50) required 535 µM and affinity was put at a Ki of 454 µM.

In experiment [1], `O=c1[nH]c(=O)n([C@@H]2O[C@H](CO)[C@H](O)C2O)cc1Cl` (stereo partly drawn) [5-chloro-1-[(2R,5R)-3,4-dihydroxy-5-(hydroxymethyl)oxolan-2-yl]-1,2,3,4-tetrahydropyrimidine-2,4-dione (V)] came in with an IC50 of 1460 µM and a Ki of 1080 µM.

In experiment [1], `NC1=NC=NC2C1N=CN2[C@@H]1O[C@H](CO)[C@H](n2cc(Cn3ccc(N)nc3=O)nn2)C1O` (stereo partly drawn) [9-[3'-[4-[(Cytosine-1-yl)methyl]-1,2,3-triazol-1-yl]-b-D-ribofuranosyl]adenine (11c)] showed an IC50 of 88.6 µM and an inhibition constant (Ki) of 57.8 µM. The same compound came in with an inhibitory constant (Ki) in experiment [2] of 98.5 µM.

In experiment [1], `Cc1cn(Cc2cn([C@@H]3C(O)[C@H](n4cnc5c(NC(=O)c6ccccc6)ncnc54)O[C@@H]3CO)nn2)c(=O)[nH]c1=O` (stereo partly drawn) [9-[3'-[4-[(Thymine-1-yl)methyl]-1,2,3-triazol-1-yl]-b-D-ribofuranosyl]N6-benzoyladenine (11b)] displayed an IC50 of 379 µM. Further, the Ki is 247 µM in experiment [1] and 150 µM in experiment [2].

In experiment [1], `Cc1cn(Cc2cn([C@@H]3C(O)[C@H](N4C=NC5C(N)=NC=NC54)O[C@@H]3CO)nn2)c(=O)[nH]c1=O` (stereo partly drawn) [9-[3'-[4-[(Thymine-1-yl)methyl]-1,2,3-triazol-1-yl]-b-D-ribofuranosyl]adenine (12b)] yielded an IC50 of 559 µM and a Ki of 365 µM. Further, in experiment [2], the affinity, expressed as Ki, was 68.8 µM.

Regarding `O=C(Nc1ncnc2c1ncn2[C@@H]1O[C@H](CO)[C@H](n2cc(Cn3ccc(=O)[nH]c3=O)nn2)C1O)c1ccccc1` (stereo partly drawn) [9-[3'-[4-[(Uracil-1-yl)methyl]-1,2,3-triazol-1-yl]-b-D-ribofuranosyl]N6-benzoyladenine (11a)], in experiment [1], the IC50 is 409 µM and the affinity corresponds to a Ki of 267 µM. Moreover, the inhibitory constant (Ki) in experiment [2] was determined as 55.5 µM.

`NC1=NC=NC2C1N=CN2[C@@H]1O[C@H](CO)[C@H](n2cc(Cn3ccc(=O)[nH]c3=O)nn2)C1O` (stereo partly drawn) [9-[3'-[4-[(Uracil-1-yl)methyl]-1,2,3-triazol-1-yl]-b-D-ribofuranosyl]adenine (12a)] came in with a half-inhibitory concentration (IC50) in experiment [1] of 652 µM. Also, the Ki turned out to be 426 µM in experiment [1] and 106 µM in experiment [2].
